1 molecule from patent US20190216923A1, “METHODS AND COMBINATION THERAPY TO TREAT CANCER” (Array BioPharma Inc., priority 2018, published 2019) can be followed below.

What is called Cmax is the highest concentration seen after dosing.

One series deals with CT26 tumors. Briefly: T-cell fraction and clonality by immune sequencing (mmTCRB assay). As to conditions: 5/10 tumors per group, FIG. 15. Type of series: in vivo, mouse. How it is done: Animals were monitored for tumor growth and body weight 2-3 times per week based on outgrowth kinetics. Tumor diameter was measured with digital calipers, and the tumor volume in mm^3 was calculated by the formula: Volume=((width)^2×length)/2. TGI was calculated on day 15. Animals were removed from study if found moribund or if tumor volume exceeded 1400 mm^3. At that time, tumor tissue was harvested and frozen for later analysis of T-cell clonality by immune sequencing (Adaptive Biotech, San Diego, Calif.). Food, water, temperature and humidity were according to Pharmacology Testing Facility performance standards (SOP's) which are in accordance with the 1996 Guide for the Care and Use of Laboratory Animals (NRC) and AAALAC-International.
The mechanism of combination activity was investigated by analyzing T-cell fraction and clonality by immune sequencing in 5/10 tumors from each group (FIG. 15). To determine the effect of binimetinib on the T cell repertoire of CT26 tumors, analysis was performed of mouse T-cell diversity, clonality and abundance as potential biomarkers by survey level sequencing of mouse tumor samples using the mmTCRB assay. Clonality was determined by quantitating the extent of mono- or oligoclonal expansion by measuring the shape of the clone frequency distribution. […]

Series [1] is described as follows: Binimetinib steady state exposure quoted in figure legends. Type of series: in vivo.
Series [2] has as its system KRas mutant CT26 murine colon syngeneic tumors. The series can be described thus: CT26 syngeneic tumor growth, survival and tolerability. Type of series: in vivo. As to conditions: table. The method, then:
1% CMC/0.5% Tween-80 (CMCT) was prepared by adding 960 mL of distilled water to a 1000 mL Pyrex® glass bottle with a stir bar in the bottom, and was used as the oral vehicle. […] Carboxymethylcellulose (5 g, CMC, low viscosity, Sigma C5678, Batch #033K0008) was added slowly, over one hour. The solution was stirred until the CMC dissolved and the solution was clear. 30 mg/kg MEK162 (Binimetinib, 100% active) was prepared as a white, homogeneous suspension in CMCT. MEK162 was administered in 10 mL/kg and dosed at 30 mg/kg (3.0 mg/mL) by oral gavage. To prepare, dry test compound (90 mg) was weighed and 30 mL CMCT added. Dose suspension was sonicated until a fine suspension was achieved (˜15 min). Final dose suspension was stored at 4° C. during live phase and sonicated to resuspend prior to dose administration. Dose suspension was prepared every 4-5 days or as needed. […]
Animals were monitored for tumor growth and body weight 2-3 times per week based on outgrowth kinetics. Tumor diameter was measured with digital calipers, and the tumor volume in mm^3 was calculated by the formula: Volume=((width)^2×length)/2. TGI was calculated on day 15. […]
Survival defined as morbidity, mortality or tumor size exceeding 1400 mm3. […] Cures: Animals with no palpable tumor at the end of the study were scored as cures. […]

The subject of another series is melanoma cell lines. Briefly: Cell surface MHC class I expression, summary over the melanoma cell line panel. Type of series: cell-based, human. How it is done:
The goal of this study was to measure the effects of binimetinib on cell surface MHC class I expression in various melanoma cell lines. In this study, eight melanoma cell lines were evaluated: MEL-JUSO (NRAS Q61L mutation), IPC-298 (NRAS Q61L mutation), A375 (BRAF V600E, homozygous mutation), HS936.T (NRAS Q61K mutation and BRAF N581K mutation), MM485 (NRAS Q61R mutation), SK-MEL-2 (NRAS Q61R mutation), MM415 (NRAS Q61L mutation), Malme-3M (BRAF V600E, heterozygous mutation). The cells lines were seeded into flat bottom 96-well tissue culture plates at a density of 5000 cells per well and allowed to adhere overnight. The following day cells were treated with vehicle control (0.25% DMSO) or varying dilutions of Binimetinib (0.7 nM-25000 nM) for 1 hour. Cells were then treated with vehicle control or 100 ng/ml IFNgamma (R&D systems) for 72 hours. Cells were washed, trypsinized, and stained with Alexa Fluor® 647 anti-human HLA-A,B,C antibody (W6/32, eBioscience) and analyzed on a BD FACSCanto II flow cytometer. An IFNg titration and time course were performed for assay optimization. Maximal induction of MHC class I expression was seen 100 ng/mL of IFNγ (see, e.g., FIGS. 1 and 2).

Consider `Cn1cnc2c(F)c(Nc3ccc(Br)cc3F)c(C(=O)NOCCO)cc21` [Binimetinib, 6-(4-bromo-2-fluorophenylamino)-7-fluoro-3-methyl-3H-benzoimidazole-5-carboxylic acid (2-hydroxyethoxy)-amide], for which, in the series on CT26 tumors, the T-cell clonality result is given as “trend for decreased” and the T-cell fraction result is “trend for decreased”. Besides, in series [1] (free fraction), the “Steady state Cmax, free fraction” value is reported as 26 nM. Moreover, the “Trough (day 15), free fraction” value in series [1] (free fraction, day 15) is listed as 8.1 nM. The molecule further showed a peak concentration (Cmax) in series [1] (in vivo, total) of 1000 nM. Further, the “Median Survival” value in series [2] worked out at 26. Further, in the series with melanoma cell lines (all tested cell lines, +IFNg), the “increase of IFNg-induced MHC class I” value is given as 1.5-4 fold. Besides, the “increase in MHC class I cell surface expression” value with melanoma cell lines (in the 6 of 8 melanoma cell lines that responded, no IFNg) is listed as 1.5-3 fold.
